Data on 4 compounds can be found in patent publication US11297838B2, “Pesticidal compositions and methods” (CORTEVA AGRISCIENCE LLC, priority 2018, dated 2022).

What all share (format): in vivo
Series [1] has as its system Beet Armyworm (Spodoptera exigua, LAPHEG). Kind of series: Insecticidal test for beet armyworm (BAW), 128-well diet tray assay. To be noted: 168 h, tested at 5 μg/cm^2, second instar larvae, five to seven days, read-out: BAW rating, % Control (or Mortality).
Series [2] deals with Cabbage Looper (Trichloplusia ni, TRIPNI). Kind of series: Insecticidal test for cabbage looper (CL), 128-well diet tray assay. To be noted: Trichoplusia ni, 168 h; tested at 5 μg/cm^2, second instar larvae, five to seven days; read-out: CL rating, % Control (or Mortality).
For series [3] the test system is unchanged. The series is described as above. The conditions noted are these: Trichoplusia ni, 168 h; 50 μg/cm^2 on artificial diet, second instar larvae, five to seven days, 25° C.; read-out: CL rating, % Control (or Mortality).
Series [4] has as its system Yellow Fever Mosquito (Aedes aegypti, AEDSAE). The conditions noted are these: about 1 day-old larvae, 4000 ppm master solution diluted, 3 days, room temperature. Here is the method: Insecticidal Test for Yellow Fever Mosquito (Aedes aegypti, AEDSAE) (“YFM”)
Master plates containing 400 μg of a molecule dissolved in 100 μL of dimethyl sulfoxide (DMSO) (equivalent to a 4000 ppm solution) are used. A master plate of assembled molecules contains 15 μL per well. To this plate, 135 μL of a 90:10 water/acetone mixture is added to each well. A robot (Biomek® NXP Laboratory Automation Workstation) is programmed to dispense 15 μL aspirations from the master plate into an empty 96-well shallow plate (“daughter” plate). There are 6 reps (“daughter” plates) created per master. The created “daughter” plates are then immediately infested with YFM larvae.
The day before plates are to be treated, mosquito eggs are placed in Millipore water containing liver powder to begin hatching (4 g. into 400 mL). After the “daughter” plates are created using the robot, they are infested with 220 μL of the liver powder/larval mosquito mixture (about 1 day-old larvae). After plates are infested with mosquito larvae, a non-evaporative lid is used to cover the plate to reduce drying. Plates are held at room temperature for 3 days prior to grading. After 3 days, each well is observed and scored based on mortality. In the reporting of the results, the “YFM Rating Table” was used.

In series [5] the test system is Beet Armyworm (Spodoptera exigua, LAPHEG). The experiment in a line: Insecticidal test for beet armyworm (BAW), 128-well diet tray assay. The conditions noted are these: 168 h, 50 μg/cm^2 on artificial diet, second instar larvae, five to seven days, 25° C., read-out: BAW rating, % Control (or Mortality).

As a reminder, the mortality is the percentage killed. In the case of `Cc1ccc(C(C)C)c(N2C(=O)CS/C2=N\C(=O)OCC(F)c2ccc(-c3ncn(-c4ccc(OC(F)(F)C(F)(F)F)cc4)n3)cc2)c1` (centres unmarked) [A26, 2-Fluoro-2-(4-(1-(4-(perfluoroethoxy)phenyl)-1H-1,2,4-triazol-3-yl)phenyl)ethyl (Z)-(3-(2-isopropyl-5-methylphenyl)-4-oxothiazolidin-2-ylidene)carbamate], the mortality at 5 µg/cm2 was 50 to 100% in series [1] and 0 to 50% in series [2].
As to `O=C(/N=C1\SCC(=O)N1c1ccccc1CCC(F)(F)F)OCCc1ccc(-c2ncn(-c3ccc(OC(F)(F)F)cc3)n2)cc1` [A8, 4-(1-(4-(Trifluoromethoxy)phenyl)-1H-1,2,4-triazol-3-yl)phenethyl (Z)-(4-oxo-3-(2-(3,3,3-trifluoropropyl)phenyl)thiazolidin-2-ylidene)carbamate], the mortality at 50 µg/cm2 in series [3] and in series [5] was 50 to 100% in each case. In addition, the “YFM rating, % Control (or Mortality)” value in series [4] is “A (80-100)”.
On to `Cc1ccc(Cl)c(N2C(=O)CS/C2=N\C(=O)OCCc2ccc(-c3ncn(-c4ccc(OC(F)(F)F)cc4)n3)cc2)c1` [A12, 4-(1-(4-(Trifluoromethoxy)phenyl)-1H-1,2,4-triazol-3-yl)phenethyl (Z)-(3-(2-chloro-5-methylphenyl)-4-oxothiazolidin-2-ylidene)carbamate], for which the mortality at 50 µg/cm2 in series [3] and in series [5] was 50 to 100% in each case. The “YFM rating, % Control (or Mortality)” value in series [4] is “A (80-100)”.
As for `Cc1cc(Cl)c(N2C(=O)CS/C2=N\C(=O)OCCc2ccc(-c3ncn(-c4ccc(OC(F)(F)F)cc4)n3)cc2)cc1C` [A18, 4-(1-(4-(Trifluoromethoxy)phenyl)-1H-1,2,4-triazol-3-yl)phenethyl (Z)-(3-(2-chloro-4,5-dimethylphenyl)-4-oxothiazolidin-2-ylidene)carbamate], the mortality at 50 µg/cm2 in series [3] and in series [5] was 0% throughout. Further, the “YFM rating, % Control (or Mortality)” value in series [4] is on record as “D (No activity noticed in this bioassay)”.
